Assay results as given in paper PMC6017290, “Oleanolic Acid-amino Acids Derivatives: Design, Synthesis, and Hepatoprotective Evaluation In Vitro and In Vivo” (Molecules : A Journal of Synthetic Chemistry and Natural …, 2018).

Experiments:
[1] = system: HSCs; test: MTT cell viability assay, HSCs; assay type: cell-based; conditions: 72 h, mean ± SD of three experiments
Procedure: (§1) Cell viability was evaluated using an MTT assay. HSCs, HepG2, Bel-7402, and L02 cells were seeded, respectively, in 96-well plates at a density of 3 × 10^3 cells per-well and stabilized at 37 °C for 24 h in a humidified atmosphere with 5% CO2. The growing cells were exposed to various concentrations of the tested drugs and incubated for 72 h (37 °C, 5% CO2). The MTT solution (20 μL, 5 mg/mL) was added to each well and incubated for 4 h. After removing the media, formazan crystals were dissolved with DMSO (150 μL). After shaking for 10 min, the absorbance was quantified at 490 nm. Wells containing no drugs were used as blanks. The IC50 values were defined as the concentration of compounds that produced a 50% reduction of surviving cells and were calculated using the Logit-method. The inhibitory rate was calculated in the following Equation (1): Inhibition rate (%) = (1 − OD Sample group/OD Control group) × 100%(1)

[2] = system: HepG2; test: MTT cell viability assay, HepG2; assay type: cell-based; conditions: Homo sapiens, 72 h, mean ± SD of three experiments
Procedure: as §1

[3] = system: Bel-7402; test: MTT cell viability assay, Bel-7402; assay type: cell-based; conditions: Homo sapiens, 72 h, mean ± SD of three experiments
Procedure: as §1

[4] = system: L02; test: MTT cell viability assay, L02 normal liver cell; assay type: cell-based; conditions: Homo sapiens, 72 h, mean ± SD of three experiments
Procedure: as §1

[5] = system: HSCs; test: Annexin V-FITC/PI staining apoptosis assay (flow cytometry); assay type: cell-based; conditions: 72 h, control cells 15.1%
Procedure: HSCs cells in logarithmic growth phase were cultured in 6-well plates at a density of 3 × 10^4 cells/mL for 24 h at 37 °C in a humidified atmosphere with 5% CO2. HSCs cells were treated with 3g at various concentrations (0, 1.5, 3.0, and 6.0 µM) for 72 h. Then, cells were collected, washed with annexin-binding buffer, and stained with annexin V-FITC and PI for 15 min in the dark. After that, the samples were analyzed by flow cytometry (BD FACSCalibur, San Jose, CA, USA).

[6] = system: HSCs; test: Mitochondrial membrane potential assay (Rh123, flow cytometry); assay type: cell-based; conditions: 1.5, 3.0, 6.0 µM, 72 h
Procedure: HSCs cells in logarithmic growth phase were seeded in 6-well culture plate at a density of 3 × 10^4 cells/mL for 24 h at 37 °C in incubator with 5% CO2. After treatment with different concentrations of 3g (0, 1.5, 3.0, and 6.0 μM) for 72 h, cells were collected and washed twice in cold PBS, then resuspended in 1 mL cell culture medium with Rh123 (10 μg/mL) and incubated for 30 min at 37 °C. After being washed twice with cold PBS, cells were immediately analyzed by the flow cytometer at 488 nm excitation wavelength.

[7] = system: HSCs; test: Intracellular free Ca2+ levels assay (Fluo-3AM, flow cytometry); assay type: cell-based; conditions: 1.5, 3.0, 6.0 µM, 72 h
Procedure: HSCs cells in logarithmic growth phase were cultured in 6-well plates at a density of 3 × 10^4 cells/mL for 24 h at 37 °C in incubator with 5% CO2. After treatment with different concentrations of 3g (0, 1.5, 3.0, and 6.0 μM) for 72 h, cells were collected and washed twice with cold PBS, then resuspended in HBSS buffer with 10 μM Fluo-3AM and incubated for 30 min at 37 °C in the dark. Intracellular Ca^2+ levels were analyzed by the flow cytometer at 488 nm excitation wavelength.

[8] = system: HSCs; test: Giemsa staining and DAPI staining, morphological changes; assay type: cell-based; conditions: 1.5, 3.0, 6.0 µM, 72 h
Procedure: HSCs cells in logarithmic growth phase were cultured in 6-well plates at a density of 3 × 10^4 cells/mL for 24 h at 37 °C in a humidified atmosphere with 5% CO2. Then, each group was treated with 3g at various concentrations (0, 1.5, 3.0, and 6.0 µM) for 72 h. The cell culture medium was discarded. Additionally, the cells were washed twice with PBS, kept in PBS/ethanol (1:1) for 2 min, and fixated in ethanol for 10 min. After removing the ethanol, the cells were stained with giemsa staining for 2 min and observed under inverted phase-contrast microscope at a magnification of 400×.
HSCs cells in logarithmic growth phase were cultured in 6-well plates at a density of 3 × 10^4 cells/mL for 24 h at 37 °C in a humidified atmosphere with 5% CO2. Additionally, each group was treated with different concentrations of 3g (0, 1.5, 3.0, and 6.0 µM) for 72 h. Cell culture medium was discarded, and the cells were washed twice with PBS. The cells were fixed with 4% paraformaldehyde (pH 7.4) for 15 min and then washed twice with PBS. With an excitation wavelength of […], 4′,6-diamidino-2-phenylindole (DAPI) staining was then performed for 2 min, and nuclear fragments were observed using inverted phase-contrast microscope at a magnification of 400×.

[9] = system: CCl4 acute liver injury mice model; test: CCl4 acute liver injury mice model (HE staining, serum ALT and AST); assay type: in vivo; conditions: 20 mg/kg intragastric, 8 days, CCl4 i.p., 16 h after injury; for activity of ALT in serum / activity of AST in serum: vs model group
Procedure: The twelve mice were randomly divided into the control group, model group, administration of OA group, and administration of 3g group. In the administration of OA and 3g group, the mice were fed with OA and 3g suspension with 0.5% CMC-Na at a dose of 20 mg/kg body weight. The control group and model group were intragastrically administered with equal volume of 0.5% CMC-Na; during administration for 8 days, the general activity, fur, and feces of mice were observed daily. After administration for 1 h on the 8th day, the other groups were intraperitoneally injected with 10mL/kg 0.2% of the carbon tetrachloride (CCl4) olive oil solution, while the control group was intraperitoneally injected with olive oil solution. After 16 h of injury, the serum was prepared by centrifugation at 3000 rpm by orbital blood. The ability of ALT and AST was measured according to the instructions of the assay kit. The liver tissues of each group were taken out and the morphological differences were observed. The large lobe of liver was taken for pathological examination with HE staining under an optical microscope (×100).

Row | IC50 [2] [µM] | IC50 [3] [µM] | SMILES | IC50 [1] [µM] | IC50 [4] [µM] | percentage (Q2 + Q4) of apoptotic HSCs ([5]; 1.5 µM) [%] | percentage (Q2 + Q4) of apoptotic HSCs ([5]; 3.0 µM) [%] | percentage (Q2 + Q4) of apoptotic HSCs ([5]; 6.0 µM) [%] | change of Rh123 mean fluorescent intensity (MFI) with concentration [6] | change of intracellular-free Ca2+ fluorescence with concentration [7] | apoptotic morphological changes of HSCs, Giemsa staining [8] | nuclear changes of HSCs, DAPI staining [8] | liver morphological observation by HE staining [9] | activity of ALT in serum [9] | activity of AST in serum [9]
1 | 18.6 ± 2.65 | > 25 | CC(C)C(N)C(=O)OC1CCC2(C)C(CCC3(C)C2CC=C2C4CC(C)(C)CCC4(C(=O)O)CCC23C)C1(C)C (centres unmarked) [3f] | 19.6 ± 3.2 | 15.2 ± 1.2 | – | – | – | – | – | – | – | – | – | –
2 | > 25 | > 25 | CC(C)CC(N)C(=O)OC1CCC2(C)C(CCC3(C)C2CC=C2C4CC(C)(C)CCC4(C(=O)O)CCC23C)C1(C)C (centres unmarked) [3d] | > 25 | > 25 | – | – | – | – | – | – | – | – | – | –
3 | 3.67 ± 0.61 | 4.7 ± 0.75 | CC1(C)CCC2(C(=O)O)CCC3(C)C(=CCC4C5(C)CCC(OC(=O)C(N)CCCCN)C(C)(C)C5CCC43C)C2C1 (centres unmarked) [3g] | 3.46 ± 1.16 | 12.3 ± 2.34 | 29.4 | 50.5 | 76.5 | decreased with the administration of higher concentrations | increased dramatically | evident nuclear fragmentation, chromatin condensation, and margination in a dose-dependent manner | nuclear condensation and fragmentation, as well as the formation of apoptotic bodies with irregular shape | more pathological changes were relieved in balloon-like hepatocyte edema and interstitial inflammatory cell infiltration than in OA | remarkably closer to control | remarkably closer to control
4 | 23.9 ± 2.65 | > 25 | CC1(C)CCC2(C(=O)O)CCC3(C)C(=CCC4C5(C)CCC(OC(=O)C6CCC(=O)N6)C(C)(C)C5CCC43C)C2C1 (centres unmarked) [3j] | > 25 | > 50 | – | – | – | – | – | – | – | – | – | –
5 | 11.1 ± 0.63 | 10.5 ± 1.49 | CC1(C)CCC2(C(=O)O)CCC3(C)C(=CCC4C5(C)CCC(OC(=O)C6CCCN6)C(C)(C)C5CCC43C)C2C1 (centres unmarked) [3c] | 15.6 ± 2.31 | 10.1 ± 0.56 | – | – | – | – | – | – | – | – | – | –
6 | 11.5 ± 0.94 | 8.5 ± 1.65 | CC1(C)CCC2(C(=O)O)CCC3(C)C(=CCC4C5(C)CCC(OC(=O)C(N)Cc6ccccc6)C(C)(C)C5CCC43C)C2C1 (centres unmarked) [3h] | 14.8 ± 0.8 | > 50 | – | – | – | – | – | – | – | – | – | –
7 | > 25 | 11.8 ± 0.83 | CNCC(=O)OC1CCC2(C)C(CCC3(C)C2CC=C2C4CC(C)(C)CCC4(C(=O)O)CCC23C)C1(C)C (centres unmarked) [3i] | 7.3 ± 1.58 | > 50 | – | – | – | – | – | – | – | – | – | –
8 | > 50 | > 50 | CC1(C)CC[C@]2(C(=O)O)CC[C@]3(C)C(=CC[C@@H]4[C@@]5(C)CC[C@H](O)C(C)(C)[C@@H]5CC[C@]43C)[C@@H]2C1 [OA, 3β-hydroxyolean-12-en-28-oic acid, reference compound] | > 50 | > 50 | – | – | – | – | – | – | – | – | reduced to some extent | reduced to some extent
9 | 12.2 ± 1.48 | > 25 | CC(N)C(=O)OC1CCC2(C)C(CCC3(C)C2CC=C2C4CC(C)(C)CCC4(C(=O)O)CCC23C)C1(C)C (centres unmarked) [3b] | 9.92 ± 1.05 | > 50 | – | – | – | – | – | – | – | – | – | –
10 | 11.5 ± 0.95 | 12.1 ± 1.32 | CC1(C)CCC2(C(=O)O)CCC3(C)C(=CCC4C5(C)CCC(OC(=O)CN)C(C)(C)C5CCC43C)C2C1 (centres unmarked) [3a] | 13.6 ± 1.12 | > 25 | – | – | – | – | – | – | – | – | – | –
11 | 18 ± 1.78 | 18.7 ± 1.63 | CCC(C)C(N)C(=O)OC1CCC2(C)C(CCC3(C)C2CC=C2C4CC(C)(C)CCC4(C(=O)O)CCC23C)C1(C)C (centres unmarked) [3e] | 24.5 ± 1.99 | > 25 | – | – | – | – | – | – | – | – | – | –
